Source: PubChem BioAssay (NCI)
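Method: 48-hour compound exposure of cells in 96-well plates, five concentrations, linear interpolation of endpoints. Here, GI50 denotes the concentration required for 50% inhibition of growth. TGI marks complete inhibition of growth.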

Columns and labels:
Experiment in all cases: NCI anticancer screen, dose series, 48 h
A549 NSCLC = tested on: A549 NSCLC
EKVX NSCLC = tested on: EKVX NSCLC
HCC-2998 colon = tested on: HCC-2998 colon
HOP-62 NSCLC = tested on: HOP-62 NSCLC
K-562 leukemia = tested on: K-562 leukemia
MDA-N = tested on: MDA-N
NCI/ADR-RES ovarian = tested on: NCI/ADR-RES ovarian
RPMI-8226 leukemia = tested on: RPMI-8226 leukemia
U251 CNS = tested on: U251 CNS
HL-60(TB) leukemia = tested on: HL-60(TB) leukemia
SW-620 colon = tested on: SW-620 colon
HOP-92 NSCLC = tested on: HOP-92 NSCLC

SMILES	TGI (A549 NSCLC) [µM]	TGI (EKVX NSCLC) [µM]	TGI (HCC-2998 colon) [µM]	TGI (HOP-62 NSCLC) [µM]	TGI (K-562 leukemia) [µM]	TGI (MDA-N) [µM]	TGI (NCI/ADR-RES ovarian) [µM]	TGI (RPMI-8226 leukemia) [µM]	TGI (U251 CNS) [µM]	TGI (HL-60(TB) leukemia) [µM]	TGI (SW-620 colon) [µM]	TGI (HOP-92 NSCLC) [µM]	GI50 (A549 NSCLC) [µM]	GI50 (EKVX NSCLC) [µM]	GI50 (HCC-2998 colon) [µM]	GI50 (HL-60(TB) leukemia) [µM]	GI50 (K-562 leukemia) [µM]	GI50 (MDA-N) [µM]	GI50 (RPMI-8226 leukemia) [µM]	GI50 (SW-620 colon) [µM]
Cc1cc(N(CCC#N)CCC#N)ccc1/C(N=Nc1ccc([N+](=O)[O-])cc1)=N\NC(=O)c1cc(Cl)ccc1O	> 100	82.4	46.2	> 100	> 100	> 100	> 100	> 100	> 100	–	–	–	–	–	–	–	–	–	–	–
NC(=S)N1N=C2CCCCCC[C@@H]2[C@H]1c1ccccc1	> 100	> 100	> 100	> 100	> 100	–	–	45	> 100	51.7	> 100	–	–	–	–	–	–	–	–	–
COc1ccc(C(=O)/C=C/c2ccc(OCCCCCCCCCCOc3ccc(/C=C/C(=O)c4ccc(OC)cc4)cc3)cc2)cc1	> 100	> 100	> 100	> 100	> 100	> 100	> 100	> 100	> 100	> 100	> 100	–	–	–	–	–	–	–	–	–
C(=N\c1nc2cc3sc(/N=C/c4ccccc4)nc3cc2s1)/c1ccccc1	> 100	> 100	> 100	> 100	> 100	> 100	> 100	> 100	> 100	–	> 100	> 100	–	–	–	–	–	–	–	–
O=P1(c2ccccc2)C(c2ccccc2)CCC1c1ccccc1 (stereo unspecified)	> 100	> 100	> 100	> 100	> 100	> 100	–	78.2	–	43.4	> 100	> 100	–	–	–	–	–	–	–	–
CC(C)(C)C1=CC(=N/N=c2\scc(-c3ccccc3)n2-c2ccccc2)C=C(C(C)(C)C)C1=O	> 100	> 100	> 100	> 100	> 100	–	–	> 100	> 100	> 100	> 100	> 100	–	–	–	–	–	–	–	–
CCOP(=O)(CC(=O)C1CC1)OCC	> 100	> 100	> 100	> 100	> 100	> 100	> 100	–	> 100	> 100	> 100	–	–	–	–	–	–	–	–	–
CC1CCN(C(C)C)P(=S)(Cc2ccccc2)O1 (stereo unspecified)	> 100	> 100	> 100	> 100	> 100	–	> 100	> 100	> 100	–	> 100	–	–	–	–	–	–	–	–	–
O=C(Cc1ccc2ccccc2c1)NCc1ccc(C(=O)NCCc2ccccc2)cc1	> 100	> 100	> 100	> 100	> 100	> 100	> 100	> 100	> 100	–	> 100	> 100	–	–	–	–	–	–	–	–
CCn1c(SCC(=O)N/N=C2\SCC(=O)N2c2ccc(C)cc2)nc2ccccc2c1=O	43.3	46.2	> 100	50.7	> 100	53.4	49.7	52.7	46.1	> 100	> 100	–	–	–	–	–	–	–	–	–
O=C(OC1=CCN(Br)C1=O)C1=C(O)C(=O)N(Br)C1	> 100	77.8	> 100	51.7	> 100	–	> 100	> 100	58.1	52.2	65.2	–	–	–	–	–	–	–	–	–
CCOC(=O)C1(C(=O)OCC)C(C(C)(C)C)=C(C)c2ccccc21	> 100	56.2	31.2	36.3	53.5	–	–	55.8	30.1	40.9	28.8	16.7	–	–	–	–	–	–	–	–
COC(=O)C(Cc1c[nH]c2ccccc12)NC(=O)C(Cc1cnc[nH]1)NC(=O)C1CCC(=O)N1C(=O)OCc1ccccc1 (stereo unspecified)	> 100	> 100	> 100	> 100	> 100	> 100	–	> 100	> 100	> 100	> 100	> 100	–	–	–	–	–	–	–	–
O=c1onc2n1-c1ccc(Cl)cc1C(=S)N1CSCC21 (stereo unspecified)	> 100	> 100	35.4	> 100	> 100	23.7	36.4	> 100	35.9	–	47.7	–	–	–	–	–	–	–	–	–
O=c1[nH]c(NCc2cccnc2)nc2nc[nH]c12	> 100	> 100	> 100	> 100	> 100	> 100	> 100	> 100	> 100	–	> 100	> 100	–	–	–	–	–	–	–	–
Cc1nc(OCc2ccccc2)c2ncn(CCO)c2n1	> 100	–	–	–	–	> 100	> 100	> 100	> 100	> 100	> 100	> 100	–	–	–	–	–	–	–	–
O=[N+]([O-])c1ncc(N(CCO)CCO)s1	–	> 100	> 100	> 100	57.5	> 100	–	44.8	> 100	40.7	> 100	–	–	–	–	–	–	–	–	–
Cc1ccc2nc3ccccc3c(C3C4C(=O)N(c5ccc(F)cc5)C(=O)C4ON3C(C(N)=O)c3ccccc3)c2c1 (stereo unspecified)	> 100	> 100	–	> 100	> 100	–	90.2	77.6	> 100	> 100	> 100	> 100	–	–	–	–	–	–	–	–
O=[N+]([O-])c1ccc(-c2csc(N=Nc3c(O)[nH]c4ccccc34)n2)cc1	81.3	> 100	50.5	> 100	–	> 100	> 100	–	> 100	–	> 100	74.5	–	–	–	–	–	–	–	–
CC(C)(C)c1ccc2c(c1)OP1(Oc3c(Cl)cc(Cl)c4cccnc34)(O2)Oc2ccc(C(C)(C)C)cc2O1	34.6	> 35.7	23.4	20	> 31.6	–	24.6	19	15.9	10.1	23.5	–	–	–	–	–	–	–	–	–
COC(=O)C(CNC(=O)/C=C/c1ccc(OC)c(OC)c1)NC(=O)/C=C/c1ccc(OC)c(OC)c1 (stereo unspecified)	> 100	> 100	> 100	> 100	> 100	> 100	> 100	> 100	> 100	–	> 100	> 100	–	–	–	–	–	–	–	–

SMILES	TGI (A549 NSCLC) [µM]	TGI (EKVX NSCLC) [µM]	TGI (HCC-2998 colon) [µM]	TGI (HOP-62 NSCLC) [µM]	TGI (K-562 leukemia) [µM]	TGI (MDA-N) [µM]	TGI (NCI/ADR-RES ovarian) [µM]	TGI (RPMI-8226 leukemia) [µM]	TGI (U251 CNS) [µM]	TGI (HL-60(TB) leukemia) [µM]	TGI (SW-620 colon) [µM]	TGI (HOP-92 NSCLC) [µM]	GI50 (A549 NSCLC) [µM]	GI50 (EKVX NSCLC) [µM]	GI50 (HCC-2998 colon) [µM]	GI50 (HL-60(TB) leukemia) [µM]	GI50 (K-562 leukemia) [µM]	GI50 (MDA-N) [µM]	GI50 (RPMI-8226 leukemia) [µM]	GI50 (SW-620 colon) [µM]
S=P1(Sc2ccccc2)Oc2ccc3ccccc3c2-c2c(ccc3ccccc23)O1	> 100	> 100	> 100	> 100	> 100	–	> 100	> 100	> 100	> 100	> 100	> 100	–	–	–	–	–	–	–	–
O=C1CCCCCCC2=C1C(Sc1ccccc1)CC2 (stereo unspecified)	> 100	85.2	–	> 100	> 100	–	–	95.5	> 100	36.2	> 100	–	–	–	–	–	–	–	–	–
COc1ccc(C2SCC(=O)N2c2ccc(-n3c(-c4ccccc4)nc4ccccc4c3=O)cc2)cc1 (stereo unspecified)	> 100	> 100	> 100	> 100	> 100	–	> 100	> 100	> 100	> 100	> 100	> 100	–	–	–	–	–	–	–	–
CC(C)(C)OC(=O)NCC(CNC(=O)OC(C)(C)C)C(N)=O	> 100	> 100	> 100	> 100	> 100	–	> 100	> 100	> 100	> 100	> 100	> 100	–	–	–	–	–	–	–	–
CCOC(=O)C12CCC(=O)N1N(C)c1ncccc1N2 (stereo unspecified)	> 100	> 100	> 100	> 100	> 100	> 100	> 100	> 100	> 100	–	> 100	–	–	–	–	–	–	–	–	–
NC1=Nc2ccccc2Sc2nncn21	> 100	> 100	> 100	> 100	> 100	–	> 100	> 100	> 100	> 100	> 100	> 100	–	–	–	–	–	–	–	–
NCC(=O)Nc1ccccc1	> 100	> 100	> 100	> 100	> 100	> 100	> 100	–	> 100	–	> 100	> 100	–	–	–	–	–	–	–	–
CN1CCC2(CC1)SSC1(CCN(C)CC1)S2	> 100	–	–	> 100	> 100	> 100	> 100	> 100	> 100	> 100	> 100	> 100	–	–	–	–	–	–	–	–
CC1OC(OC2C(O)COC(OC3C(C)OC(OC4C(OC(=O)[C@]56CCC(C)(C)C[C@@H]5C5=CCC7[C@@]8(C)C[C@H](O)[C@H](OC9OC(CO)C(O)C(O)C9O)[C@@](C)(CO)[C@@H]8CC[C@@]7(C)[C@]5(C)CC6)OCC(O)C4O)C(O)C3O)C2O)C(O)C(O)C1O (stereo partly specified)	43.6	33.1	38	37.7	> 100	42.3	44.9	> 100	54.9	–	46.5	45.2	–	–	–	–	–	–	–	–
Nc1ncnc2c1ncn2[C@H]1C=C[C@@H](NO)C1	> 100	> 100	> 100	> 100	> 100	> 100	> 100	> 100	> 100	–	> 100	> 100	–	–	–	–	–	–	–	–
CC1C(C)(C)C23CC12C1(OCCO1)C3Br (stereo unspecified)	> 100	> 100	> 100	> 100	> 100	> 100	> 100	> 100	> 100	> 100	> 100	–	–	–	–	–	–	–	–	–
Cc1ccc2c(c1)nc1n2C(c2c(F)cccc2F)SC1 (stereo unspecified)	> 100	> 100	> 100	> 100	> 100	> 100	> 100	> 100	> 100	–	> 100	–	–	–	–	–	–	–	–	–
Cc1nc2c(c(N3CCN(C)CC3)n1)Cc1ccccc1-2	> 100	> 100	–	–	> 100	> 100	> 100	> 100	> 100	> 100	> 100	> 100	–	–	–	–	–	–	–	–
O=C1C(Cl)=C(Cl)C(=O)C(CCNc2nccs2)=C1Cl	> 100	60.4	> 100	> 100	> 100	–	58.7	–	> 100	> 100	> 100	58.2	–	–	–	–	–	–	–	–
COC(=O)C1=CO[C@@H](C)[C@@H]2Cn3ccc4c5ccccc5nc-4c3C[C@H]12	> 100	> 100	–	> 100	> 100	–	–	> 100	> 100	–	> 100	> 100	–	–	–	–	–	–	–	–
CC(=O)OCc1c(O)c2c([nH]c1=O)CCc1ccccc1-2	> 350	> 350	197	> 350	> 350	–	–	> 350	> 350	210	111	182	–	–	–	–	–	–	–	–
CCCCN(CC)C(=O)C(=O)Cc1nc2ccc(C(=O)c3ccccc3)cc2[nH]c1=O	> 100	> 100	–	> 100	> 31.6	–	–	> 31.6	> 100	> 31.6	> 100	> 100	–	–	–	–	–	–	–	–
OC1NC2Nc3ccccc3NC2NC1O (stereo unspecified)	> 100	> 100	> 100	> 100	> 100	–	> 100	–	> 100	> 100	> 100	> 100	–	–	–	–	–	–	–	–
COC(=O)C1CCC(=O)N1C(c1ccc(OC)cc1)c1cc(OC)c(OC)c(OC)c1 (stereo unspecified)	> 100	> 100	0.6	> 100	> 75.8	1.97	1.01	–	> 100	–	> 100	> 100	–	–	–	–	–	–	–	–
FC1(F)ON2CCc3ccccc3C2[C@H]1c1ccccc1 (stereo partly specified)	> 100	> 100	> 100	> 100	> 100	> 100	> 100	> 100	> 100	> 100	> 100	–	> 100	> 100	> 100	> 100	> 100	> 100	> 100	> 100
